In PubChem BioAssay (NCI) one finds TGI and GI50 data, which are given here for 14 molecules.

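Dose response: 5 concentrations. Exposure: 48 h. Format: 96-well plates. Endpoint: linear interpolation; highest concentration if not reached. GI50 marks 50% less growth. At the TGI there is no net growth.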

Test systems include NCI-H460 lung; ACHN renal; SF-295 CNS; IGROV1 ovarian; KM12 colon; DMS 273 small cell lung; SNB-78 CNS; SF-539 CNS; HCC-2998 colon; K-562 leukemia.
Common to all, as to test: NCI tumour cell line growth inhibition, 48 h

Turning to `CCOC(=O)c1c(C(F)(F)F)oc2c1ccc1nc3nonc3nc12`, the TGI in the assay with NCI-H460 lung was 49.6 µM; in the assay on ACHN renal, 29.4 µM; in the assay with SF-295 CNS it was above 63.3 µM; in the assay with IGROV1 ovarian, 55.7 µM; in the assay on KM12 colon it was 51.3 µM; with DMS 273 small cell lung, 34.4 µM. Also, the TGI came to 23.2 µM in the assay with SNB-78 CNS, 32 µM in the assay with SF-539 CNS, 47.6 µM in the assay on HCC-2998 colon and 13.9 µM in the assay on K-562 leukemia.

For the molecule `O=C(/C=C/c1ccc(Cl)c(Cl)c1)C1CCC(Cl)CC1` (stereo not drawn), the TGI with NCI-H460 lung was determined as 73.8 µM; with ACHN renal it was 32 µM; with SF-295 CNS it was 35.8 µM; in the assay with IGROV1 ovarian, 33.9 µM; with KM12 colon, 46.1 µM; in the assay on DMS 273 small cell lung, 32.1 µM. The figures for the TGI in the assay on SNB-78 CNS, with SF-539 CNS and with HCC-2998 colon were 42.3 µM, 33.6 µM and 32.8 µM, respectively.

In the case of `CC(C)NC(=O)O/N=C1\CCC2[C@@H]3CC=C4C[C@@H](OC(=O)NC(C)C)CC[C@]4(C)C3CC[C@]12C` (stereo partly drawn), the TGI was 3.06 µM in the assay on NCI-H460 lung; 2.17 µM in the assay on ACHN renal; 7.67 µM with SF-295 CNS; 3.73 µM with KM12 colon; 2.82 µM in the assay with DMS 273 small cell lung; 6.77 µM with SNB-78 CNS. Besides, the TGI in the assay on HCC-2998 colon is 5.06 µM; in the assay with K-562 leukemia, 5.85 µM.

Turning to `O=C1c2ccccc2C(=O)c2sc(Nc3ccc(Cl)c(Cl)c3)nc21`, the TGI was 34.2 µM with NCI-H460 lung; 3.17 µM in the assay on ACHN renal; 29.4 µM in the assay on SF-295 CNS; 10.1 µM in the assay with IGROV1 ovarian; 18 µM in the assay with KM12 colon; 22.1 µM in the assay with DMS 273 small cell lung. The TGI is 6.68 µM with SNB-78 CNS, 8.18 µM in the assay on SF-539 CNS, 29.3 µM with HCC-2998 colon and 17.9 µM in the assay with K-562 leukemia.

On to `OC1C2C=CCC1CCC2` (stereo not drawn), for which the TGI in the assay with NCI-H460 lung, in the assay on ACHN renal, in the assay on SF-295 CNS, with IGROV1 ovarian, with KM12 colon and in the assay on DMS 273 small cell lung was above 100 µM each time. Besides, the TGI in the assay on SNB-78 CNS, with SF-539 CNS and in the assay with K-562 leukemia was above 100 µM each time.

On to `COC(=O)C(=O)C1CCCCC(C2=NC3NN=C(N)N3C2=O)C1=O` (stereo not drawn), for which the TGI in the assay on NCI-H460 lung, in the assay on ACHN renal, in the assay on SF-295 CNS, in the assay on IGROV1 ovarian, with KM12 colon and in the assay with DMS 273 small cell lung was above 100 µM in each case. Moreover, the TGI in the assay with SF-539 CNS, with HCC-2998 colon and in the assay with K-562 leukemia was above 100 µM throughout.

For the molecule `O=C1C2Nc3ccccc3SC2C(=O)N1c1cccc([N+](=O)[O-])c1` (stereo not drawn), the TGI in the assay with NCI-H460 lung, with ACHN renal, in the assay with SF-295 CNS, in the assay on IGROV1 ovarian, in the assay with KM12 colon and in the assay with DMS 273 small cell lung was above 100 µM throughout. Also, the TGI in the assay with SNB-78 CNS, in the assay with SF-539 CNS, in the assay with HCC-2998 colon and with K-562 leukemia was above 100 µM each time.

For the molecule `C=C1CC(C/C=C(\C)CC2CC(=C)C(=O)O2)OC1=O` (stereo not drawn), the TGI with NCI-H460 lung, in the assay with ACHN renal, with SF-295 CNS, in the assay with IGROV1 ovarian, in the assay on KM12 colon and in the assay with DMS 273 small cell lung was above 100 µM each time. In addition, the TGI with SNB-78 CNS, with SF-539 CNS, in the assay on HCC-2998 colon and with K-562 leukemia was above 100 µM in each case.

In the case of `Cc1cccc(N=C2NC(=O)C(CC(=O)Nc3ccc(Cl)cc3C)S2)c1` (stereo not drawn), the TGI in the assay on NCI-H460 lung, with ACHN renal, in the assay on SF-295 CNS, with IGROV1 ovarian, in the assay with KM12 colon and in the assay on DMS 273 small cell lung was above 100 µM each time. The TGI in the assay with SF-539 CNS, in the assay on HCC-2998 colon and in the assay with K-562 leukemia was above 100 µM throughout.

Consider `O=c1[nH]c2c(O)cccc2c2cc3c(c(O)c12)OCO3`, for which the TGI in the assay on NCI-H460 lung is 36.6 µM; with ACHN renal, 49.4 µM; in the assay on SF-295 CNS, 44.8 µM; in the assay with IGROV1 ovarian, above 100 µM; with KM12 colon, 41.2 µM; in the assay on DMS 273 small cell lung it was 59.3 µM. The TGI is 80.4 µM with SNB-78 CNS, 54.4 µM in the assay on SF-539 CNS, 56.1 µM in the assay with HCC-2998 colon and above 100 µM in the assay on K-562 leukemia.

As for `Cc1cc(=O)[nH]c(CNC(=O)Cc2ccccc2)n1`, the TGI with NCI-H460 lung, with ACHN renal, in the assay on SF-295 CNS, in the assay with IGROV1 ovarian, in the assay on KM12 colon and with DMS 273 small cell lung was above 100 µM each time. In addition, the TGI in the assay with SNB-78 CNS, in the assay with SF-539 CNS, in the assay with HCC-2998 colon and in the assay on K-562 leukemia was above 100 µM in each case.

With `CCOc1ccc(NC(=O)CCC(=O)NN)cc1`, the TGI in the assay with NCI-H460 lung, in the assay on ACHN renal, in the assay with SF-295 CNS, in the assay with KM12 colon, in the assay with DMS 273 small cell lung and in the assay on SNB-78 CNS was above 100 µM each time. The TGI in the assay with HCC-2998 colon and with K-562 leukemia was above 100 µM in each case.

For the molecule `O=[N+]([O-])c1cc(/C=N/NS(=O)(=O)c2ccc(F)cc2)c(O)c([N+](=O)[O-])c1`, the TGI in the assay on NCI-H460 lung was 84 µM; in the assay with ACHN renal, above 100 µM; in the assay with SF-295 CNS, above 100 µM; with IGROV1 ovarian, above 100 µM; with KM12 colon, 50 µM; in the assay on DMS 273 small cell lung it was 98.9 µM. In addition, the TGI was above 100 µM in the assay with SNB-78 CNS, 43.9 µM with SF-539 CNS, above 100 µM in the assay on HCC-2998 colon and above 100 µM with K-562 leukemia.

On to `CCOC(=O)CNC(=O)C(CSC(=O)N(C)O)NC(=O)CCC(N)C(=O)O` (stereo not drawn), for which the GI50 in the assay with NCI-H460 lung, in the assay on ACHN renal, with IGROV1 ovarian, with KM12 colon, with DMS 273 small cell lung and with K-562 leukemia was above 2000 µM throughout. For the same molecule, the TGI in the assay with NCI-H460 lung, with ACHN renal, with IGROV1 ovarian, in the assay with KM12 colon and with K-562 leukemia was above 2000 µM throughout.
